Test results from patent publication US12622948B2 (SUN PHARMACEUTICAL INDUSTRIES LIMITED, priority 2020, dated 2026).
Marks after values point to notes of the source that are not given here. Non-standard residues stand in square brackets, D forms with d. No end group written: not given here. Moiety A = not defined here; Nva = CCC[C@H](N)C(=O)O; Aib = CC(C)(N)C(=O)O

Test system: type 2 diabetic mouse (db/db) model
Test: Efficacy study in db/db mice at 10 nM/kg dose (blood glucose, body weight, food intake)
Assay type: in vivo
Conditions: 10 nM/kg s.c. single dose
Method: The effect of compounds of present invention on blood glucose, food intake and body weight was studied in mice. This study was performed in a type 2 diabetic mouse (db/db) model. […] Baseline blood glucose was measured from all the animals. […] All the animals were administered with test items subcutaneously. […] Delta blood glucose (mM) was calculated.

[1] = Study 3, db/db mice, 0 hr (baseline)

Compound	Cumulative food Intake (g) 0-48 hr. vs. Baseline, Mean (Study 3, db/db mice)	Cumulative food Intake (g) 0-96 hr. vs. Baseline, Mean (Study 3, db/db mice)	Delta Blood Glucose (mM) Mean [1] [mM]	Delta Blood Glucose (mM) Mean (Study 3, db/db mice, 4 hr)	Delta Blood Glucose (mM) Mean (Study 3, db/db mice, 8 hr)	Delta Blood Glucose (mM) Mean (Study 3, db/db mice, 12 hr)	Delta Blood Glucose (mM) Mean (Study 3, db/db mice, 24 hr)	Body Wt. Change (%) 48 hr. vs. Baseline, Mean (Study 3, db/db mice, 48 hr)	Delta Blood Glucose (mM) Mean (Study 3, db/db mice, 48 hr)	Delta Blood Glucose (mM) Mean (Study 3, db/db mice, 72 hr)	Body Wt. Change (%) 96 hr. vs. Baseline, Mean (Study 3, db/db mice, 96 hr)	Delta Blood Glucose (mM) Mean (Study 3, db/db mice, 96 hr) [mM]	other results
Compound 9: SEQ ID 09 polypeptide (C-terminal Arg, free acid), Lys20 acylated with Moiety A (Y[Aib]EGTFTSDYSI[Nva]LDKIAQK(Moiety A)AFVQWLIAGGPSSGAPPPSR-OH; reading uncertain)	4.2*** g	16.7*** g	0	−13.1*** mM	−12.7*** mM	−12.1*** mM	−8.7*** mM	−3.4*** %	−7.1*** mM	−5.6* mM	−3.8*** %	0	
Compound 8: SEQ ID 08 polypeptide, C-terminal Lys40 acylated with Moiety A (Y[Aib]EGTFTSDYSI[Nva]LEKIAAQEFVNWLLAGGPSSGAPPPSK(Moiety A)-NH2; reading uncertain)	4.0*** g	13.9*** g	0	−13.6*** mM	−13.6*** mM	−13.6*** mM	−8.5*** mM	−3.1*** %	−5.6* mM	-1.8 mM	−2.8*** %	-0.6	
CCCC[C@H](NC(=O)[C@@H](NC(=O)[C@H](CO)NC(=O)[C@H](Cc1ccc(O)cc1)NC(=O)[C@H](CC(=O)O)NC(=O)[C@H](CO)NC(=O)[C@@H](NC(=O)[C@H](Cc1ccccc1)NC(=O)[C@@H](NC(=O)CNC(=O)[C@H](CCC(=O)O)NC(=O)C(C)(C)NC(=O)[C@@H](N)Cc1ccc(O)cc1)[C@@H](C)O)[C@@H](C)O)[C@@H](C)CC)C(=O)N[C@@H](CC(C)C)C(=O)N[C@@H](CC(=O)O)C(=O)N[C@@H](CCCCN)C(=O)N[C@H](C(=O)N[C@@H](C)C(=O)N[C@@H](CCC(N)=O)C(=O)N[C@@H](CCCCNC(=O)COCCOCCNC(=O)C(C)(C)NC(=O)CC[C@H](NC(=O)CCCCCCCCCCCCCCCCCCC(=O)O)C(=O)O)C(=O)N[C@@H](C)C(=O)N[C@@H](Cc1ccccc1)C(=O)N[C@H](C(=O)N[C@@H](CCC(N)=O)C(=O)N[C@@H](Cc1c[nH]c2ccccc12)C(=O)N[C@@H](CC(C)C)C(=O)N[C@H](C(=O)N[C@@H](C)C(=O)NCC(=O)NCC(=O)N1CCC[C@H]1C(=O)N[C@@H](CO)C(=O)N[C@@H](CO)C(=O)NCC(=O)N[C@@H](C)C(=O)N1CCC[C@H]1C(=O)N1CCC[C@H]1C(=O)N1CCC[C@H]1C(=O)N[C@@H](CO)C(N)=O)[C@@H](C)CC)C(C)C)[C@@H](C)CC [Compound 11]													Cumulative food Intake (g) 0-48 hr. vs. Baseline, Mean (Study 4, db/db mice): 8.2*** g; Cumulative food Intake (g) 0-96 hr. vs. Baseline, Mean (Study 4, db/db mice): 21.7* g; Delta Blood Glucose (mM) Mean (Study 4, db/db mice, 0 hr (baseline)): 0 mM; Delta Blood Glucose (mM) Mean (Study 4, db/db mice, 4 hr): −13.3*** mM; Delta Blood Glucose (mM) Mean (Study 4, db/db mice, 8 hr): −13.3*** mM; Delta Blood Glucose (mM) Mean (Study 4, db/db mice, 12 hr): −13.6*** mM; Delta Blood Glucose (mM) Mean (Study 4, db/db mice, 24 hr): −15.4*** mM; Body Wt. Change (%) 48 hr. vs. Baseline, Mean (Study 4, db/db mice, 48 hr): −4.7*** %; Delta Blood Glucose (mM) Mean (Study 4, db/db mice, 48 hr): −6.1*** mM; Delta Blood Glucose (mM) Mean (Study 4, db/db mice, 72 hr): 3.6 mM; Body Wt. Change (%) 96 hr. vs. Baseline, Mean (Study 4, db/db mice, 96 hr): −2.0*** %; Delta Blood Glucose (mM) Mean (Study 4, db/db mice, 96 hr): 6 mM
